# From patent US6420428B1, “Treatment and prevention of hepatic disorders” (The Regents of the University of California, priority 1996, dated 2002)
# Entries after “also recorded” stand apart in the source; their conditions may differ.
# Key:
# hepatic stellate cells [1] = test: Activation of cultured hepatic stellate cells (α-SMA immunohistochemistry); format: cell-based, Sprague-Dawley rats; settings: for effect on stellate cell activation / increased α-SMA expression induced by collagen type I matrix: cultured on collagen type I matrix
# Procedure: Stellate cells were prepared from male Sprague-Dawley (400-500 grams) rats (Charles River Breeding Labs) by in situ perfusion of the liver and single-step density Nycodenz® gradient (Accurate Chemical & Scientific Corp.). [See Bedossa et al., Hepatology 19(5):1262-71 (1994); Brenner et al., Mol. Biol. Med. 7:105-15 (1990)]. The cells were mixed with 9.5 mL Hank's buffer containing 3 g/L BSA and 8 mL of 28.7% (w/v) Nycodenz® in sodium-free Hank's buffer. The gradient was generated by placing 6 mL of the Hank's/BSA solution on top of the liver cell mixture in a 50 mL centrifugation tube. […] For TGFα-induced stellate cell activation, cells were cultured on plastic in serum-free defined media (Fibroblast basal medium with Insulin, Clonetics). Fibroblast basal medium is similar to F12 medium, but contains folinic acid, Hepes buffer with NaOH, MgSO4, and adenine instead of folic acid, NaHCO3, MgCl2 and hypoxanthine. Cells were plated on 60-mm dishes coated with collagen type 1, EHS matrix (Matrigel; Collaborative Bio-medical Products) or plastic (according to the experimental design), for the initial seeding of fat-storing cells at a density of 2-3×10^6. Matrigel's major components are […], collagen IV, proteoglycans, entactin and nidogen; it also contains:TGFβ, fibroblast growth factor, and tissue plasminogen activator. […] Medium was changed every 24 h for all conditions. The sequences of c-myb oligonucleotide phosphorothioate were: sense ([NT] ID NO:3) and antisense ([NT] ID NO:4). Stellate cells were identified by their typical autofluorescence at 328 nm excitation wavelength, staining of lipid droplets by oil red, and immunohistochemistry with a monoclonal antibody against desmin. [Bedossa et al., Hepatology 19(5):1262-71 (1994)]. Cells, fixed with acetone:methanol (50:50) at -20° C. for 20 min., and liver tissue were immunostained as described, e.g., by Buck et al., EMBO J. 13:851-60 (1994). Antibodies directed against c-myb, NFkB65, α-SMA, or PCNA were obtained from Sigma, 5 Prime 3 Prime, and Oncogene Sciences. Fluorescent labels were visualized using a dual channel Zeiss microscope and a computer imaging system (Image 1 software). A phase-contrast microscope was utilized to visualize antigens with alkaline phosphatase secondary antibodies (Vector Laboratories). Cytochromes utilized were alkaline phosphatase with fast green as counterstain, and FITC with Evans blue as counterstain (Sigma). The number of PCNA (+), c-myb(+), or NFkB(+), α-SMA(+) cells was expressed as a percentage of total cells. At least 1,000 cells were analyzed for each experimental point, and a minimum of two observers analyzed each immunohistochemical experiment independently. Negative control samples were processed in parallel under the same conditions, but with omission of the first antibody. The role of lipid peroxidation on stellate cell activation was examined. Stellate cell activation was induced in quiescent cells growing on a EHS matrix; inhibition of this phenotype was evaluated with cells activated by collagen type I matrix. [See Davis et al., J. Biol. Chem. 262:10280-86 (1987)]. When stellate cell activation was induced by TGFα as described, e.g., by Pinzani et al., J. Clin. […] Stellate cell activation was assessed by the expression of α-SMA (as described in Example 1) and S-phase by the presence of PCNA. [Bravo et al., Nature (Lond.) 326:515-17 (1987)]. […] SEM<30% of the mean for all conditions).
# hepatic stellate cells [2] = test: Proliferation of cultured hepatic stellate cells (nuclear expression of PCNA, S-phase); format: cell-based, Sprague-Dawley rats; settings: for effect on stellate cell cycle activation (PCNA) induced by collagen type I matrix or TGFα: 50 μM
# Procedure: Stellate cells were prepared from male Sprague-Dawley (400-500 grams) rats (Charles River Breeding Labs) by in situ perfusion of the liver and single-step density Nycodenz® gradient (Accurate Chemical & Scientific Corp.). […] The cells were mixed with 9.5 mL Hank's buffer containing 3 g/L BSA and 8 mL of 28.7% (w/v) Nycodenz® in sodium-free Hank's buffer. The gradient was generated by placing 6 mL of the Hank's/BSA solution on top of the liver cell mixture in a 50 mL centrifugation tube. After centrifugation (1000 g, 4° C., 20 min) the cells were aspirated from above the interface and washed twice in serum-free DME regular glucose medium.
# Thereafter, the cells were cultured under an atmosphere of 5% CO2, 95% air in tissue culture dishes using DME medium containing penicillin G 100 units/mL, streptomycin sulfate 100 μg/mL and 10% fetal calf serum. For TGFα-induced stellate cell activation, cells were cultured on plastic in serum-free defined media (Fibroblast basal medium with Insulin, Clonetics). Fibroblast basal medium is similar to F12 medium, but contains folinic acid, Hepes buffer with NaOH, MgSO4, and adenine instead of folic acid, NaHCO3, MgCl2 and hypoxanthine. Cells were plated on 60-mm dishes coated with collagen type 1, EHS matrix (Matrigel; Collaborative Bio-medical Products) or plastic (according to the experimental design), for the initial seeding of fat-storing cells at a density of 2-3×10^6. […]
# The number of PCNA (+), c-myb(+), or NFkB(+), α-SMA(+) cells was expressed as a percentage of total cells. At least 1,000 cells were analyzed for each experimental point, and a minimum of two observers analyzed each immunohistochemical experiment independently. […]
# The role of lipid peroxidation on stellate cell activation was examined. Stellate cell activation was induced in quiescent cells growing on a EHS matrix; inhibition of this phenotype was evaluated with cells activated by collagen type I matrix. […] Stellate cell activation was assessed by the expression of α-SMA (as described in Example 1) and S-phase by the presence of PCNA.
# [3] = cited from earlier work
# cultured stellate cells = settings: cited from earlier work
# 5-lipoxygenase [4] = molecular target: T1, 5-lipoxygenase (Homo sapiens, UniProt P09917); settings: cited from earlier work
# T1 sequence (P09917 1-674): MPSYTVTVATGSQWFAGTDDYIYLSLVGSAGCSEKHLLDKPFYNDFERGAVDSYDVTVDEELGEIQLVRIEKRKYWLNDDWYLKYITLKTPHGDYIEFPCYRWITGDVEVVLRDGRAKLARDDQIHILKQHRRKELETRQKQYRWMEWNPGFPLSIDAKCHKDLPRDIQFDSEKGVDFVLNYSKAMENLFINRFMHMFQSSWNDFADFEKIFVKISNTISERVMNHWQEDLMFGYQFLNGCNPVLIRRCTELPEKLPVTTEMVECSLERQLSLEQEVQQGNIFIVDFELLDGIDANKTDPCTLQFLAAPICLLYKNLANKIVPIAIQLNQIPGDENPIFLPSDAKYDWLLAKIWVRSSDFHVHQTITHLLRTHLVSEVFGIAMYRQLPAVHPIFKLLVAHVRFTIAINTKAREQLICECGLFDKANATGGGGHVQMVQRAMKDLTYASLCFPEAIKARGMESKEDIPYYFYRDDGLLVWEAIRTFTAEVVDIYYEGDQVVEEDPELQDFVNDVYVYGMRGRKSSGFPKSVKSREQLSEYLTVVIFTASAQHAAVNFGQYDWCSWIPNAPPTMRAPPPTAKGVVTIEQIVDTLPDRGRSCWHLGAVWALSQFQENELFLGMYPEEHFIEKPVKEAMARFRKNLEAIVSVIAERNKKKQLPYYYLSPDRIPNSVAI
# [5] = system: fatty acid cyclooxygenase; settings: cited from earlier work
# [6] = system: human polymorphonuclear leukocytes; settings: stimulated with calcium ionophore A23187; cited from earlier work
# phospholipase A2 = settings: cited from earlier work
# [7] = system: fibrogenesis cascade in the liver of patients with chronic hepatitis C; test: Liver biopsy immunohistochemistry and in situ hybridization in patients with chronic hepatitis C; format: in vivo, human; settings: 8 weeks
# Procedure: Antisera to MDA-lysine adducts were prepared by a variation of the technique described by Houglum et al., J Clin Invest 86:1991-98 (1990). Briefly, rabbit LDS was purified and modified with MDA, and the modified autologous LDL was used to immunize rabbits.
# Sections from paraffin-embedded blocks were deparaffinized, passed through graded series of alcohol, rehydrated in PBS, and stained with hematoxylin and eosin. Immunohistochemistry was performed using the avidin-biotin complex-alkaline phosphatase, peroxidase systems (Vector Laboratories, ABC-peroxidase system) or fluorescein. Sections were immunostained with antibodies specific for MDA-protein adducts, α-smooth muscle actin (Sigma), or c-myb.
# The antisera was used with fluorochrome-conjugated secondary antibodies. Fluorescent labels were visualized using a dual filter Zeiss microscope, while a phase-contrast microscope was used to visualize antigens with hematoxilin/eosin or alkaline phosphatase secondary antibodies.
# Hybridization, RNase digestion of mismatched sequences, and immunological detection of the digoxigenin-labeled RNA probes were performed as described by Houglum et al., Am. […] Briefly, single stranded RNA probes in both sense and antisense orientations were transcribed in vitro from the plasmid pHuCol, which contains a 300 base pair cDNA fragment of the human collagen α1(I) gene, and labeled with digoxigenin-11-UTP. […] For the labelling procedure, 2 μg of linearized plasmid were transcribed in a 30 μL reaction volume containing 40 mM tris(hydroxymethyl)aminomethane (Tris).HCl, pH 7.9; 6 mM MgCl2; 2 mM apermidine.HCl; 10 mM dithiothreitol, 10 mM ATP, CTP, and GTP; 6.5 mM UTP; and 3.5 mM digoxigenin-11-UTP with 309 units of T3 or T7 DNA polymerase. The specificity of the probe was assessed by in situ hybridization of human skin. All sections were processed using same batches of probe and reagents and using sense and antisense in parallel.
# [8] = Plasma d-α-tocopherol by high pressure chromatography in patients; format: in vivo, human; settings: 1,200 IU/day orally for 8 weeks; before treatment 9.6±4.3; P<0.003
# Text: (§1) Patients with chronic active hepatitis C and severe necro-inflammatory changes without cirrhosis (as established by liver biopsy) were studied at the University of California San Diego Liver Clinic. Six patients (2 women and 4 men; 47±8 years) who had not responded to interferon α-2b therapy (i.e., who were refractory) and with no other co-morbid illnesses received 1,200 IU/day of d-α-tocopherol orally for 8 weeks. On completion of the study, all patients underwent a liver biopsy; liver sections from patients with chronic hepatitis C and from individuals without liver disease were provided by Dr. C. Behling at UCSD.
# (§2) Liver tissue obtained from biopsies was studied, as described below, by immunohistochemistry and in situ hybridization with specific riboprobes. Carbonyl modifications were assayed in plasma proteins, as an index of oxidative stress. [Palinski et al., Arteriosclerosis 10:325-35 (1990)]. Serum alanine aminotransferase (ALT) was determined with a (Hitachi) analyzer, plasma d-α-tocopherol by high pressure chromatography, and HCV RNA by quantitative PCR. [See U.S. Pat. Nos. 4,683,202 and 4,683,195, hereby incorporated by reference].
# [9] = Carbonyl modifications of plasma proteins (index of oxidative stress) in patients; format: in vivo, human; settings: 1,200 IU/day, 8 weeks; before treatment 2.7±0.4; P<0.001
# Text: as §1, §2
# HCV = HCV RNA by quantitative PCR in patients; format: in vivo, human; settings: 1,200 IU/day, 8 weeks
# Text: as §1, §2
# collagen expression = settings: injected into mice; cited from earlier work
# [10] = nutritional- or CCl4-induced injury; cited from earlier work
# chronic hepatitis B or C = settings: in vivo; cited from earlier work
# cyclooxygenase = settings: cited from earlier work
# 5-lipoxygenase [11] = molecular target: T1, 5-lipoxygenase; settings: cited from earlier work; remark: listed apart in the source
# [12] = in vivo; cited from earlier work
compound,measurement,setting,value
"Cc1cc(C(C)(C)C)c(O)c(C(C)(C)C)c1 [BHT, 2,6-Bis(1,1-dimethylethyl)-4-methylphenol]",effect on stellate cell activation / increased α-SMA expression induced by collagen type I matrix,hepatic stellate cells [1]; 50 μM,blocked the induction of stellate cell activation by collagen type I matrix; also recorded: abolished
same,effect on stellate cell cycle activation (PCNA) induced by collagen type I matrix or TGFα,hepatic stellate cells [2],blocked the activation of the stellate cell cycle
same,solubility in alcohols,[3]; alcohols like ethanol and isopropanol,soluble
same,solubility in water,[3]; water,insoluble
NC1=NN(c2cccc(C(F)(F)F)c2)CC1 [BW-755c],inhibition of activation and collagen expression/production,cultured stellate cells,success in inhibiting activation and collagen production
"CC(C)(C)c1cc(C=C2SCNC2=O)cc(C(C)(C)C)c1O [LY-178002, 5-{[3,5-bis(1,1-dimethylethyl)-4-hydroxyphenyl]methylene}-4-thiazolidine]",enzymatic activity of 5-lipoxygenase,5-lipoxygenase [4],inhibit
same,enzymatic activity of fatty acid cyclooxygenase,[5],inhibit
same,leukotriene B4 production,[6],inhibit leukotriene B4 production
same,enzymatic activity of phospholipase A2,phospholipase A2,inhibit
"CN1CSC(=Cc2cc(C(C)(C)C)c(O)c(C(C)(C)C)c2)C1=O [LY-256548, 5-{[3,5-bis(1,1-dimethylethyl)-4-hydroxyphenyl]methylene}-4-N-methylthiazolidine]",enzymatic activity of 5-lipoxygenase,5-lipoxygenase [4],inhibit
same,enzymatic activity of fatty acid cyclooxygenase,[5],inhibit
same,leukotriene B4 production,[6],inhibit leukotriene B4 production
same,enzymatic activity of phospholipase A2,phospholipase A2,inhibit
Cc1c(C)c2c(c(C)c1O)CC[C@@](C)(CCC[C@H](C)CCC[C@H](C)CCCC(C)C)O2 [d-α-tocopherol],effect on stellate cell activation / increased α-SMA expression induced by collagen type I matrix,hepatic stellate cells [1]; 50 μM,blocked the induction of stellate cell activation by collagen type I matrix; also recorded: abolished
same,effect on stellate cell cycle activation (PCNA) induced by collagen type I matrix or TGFα,hepatic stellate cells [2],blocked the activation of the stellate cell cycle
same,expression of c-myb in stellate cells,"[7]; 1,200 IU/day orally",diminished expression of c-myb in stellate cells
same,stellate cell activation (α-SMA) in liver sections,"[7]; 1,200 IU/day orally",lesser degree of stellate cell activation
same,expression of collagen α1(I) mRNA in stellate cells,"[7]; 1,200 IU/day orally, in situ hybridization",lower expression of collagen al(I) mRNA in stellate cells
same,MDA-adducts in liver sections,"[7]; 1,200 IU/day orally, patients refractory to interferon",decreased MDA-adducts
same,effect on histologic degree of hepatocellular inflammation,"[7]; 1,200 IU/day",did not significantly affect
same,plasma levels of d-α-tocopherol after treatment,[8],27±6.8
same,carbonyl modified plasma proteins after treatment,[9],1.5 ± 0.4 µmol/mL
same,effect on HCV titres,HCV,did not significantly affect
same,collagen expression by the skin,collagen expression,did not inhibit collagen expression by the skin
same,collagen expression in the liver and tendons,collagen expression,decreases collagen expression in the liver and tendons
same,hepatocellular necrosis,[10],ameliorate hepatocellular necrosis
O=CCC=O [malondialdehyde],activation of hepatic stellate cells on EHS matrix,"hepatic stellate cells [1]; 50 μM, data not shown","able to activate stellate cells, but to a lesser extent"
same,activation of hepatic stellate cells on EHS matrix,hepatic stellate cells [1]; 200 μM,markedly stimulated the activation of hepatic stellate cells
same,cells (+) for α-SMA,"hepatic stellate cells [1]; stellate cells cultured on plastic, 58% without malondialdehyde, P<0.05",93%
same,stellate cell entry into S-phase,"hepatic stellate cells [2]; 200 μM, EHS matrix",stimulated stellate cell entry into S-phase
CC(C)(Sc1cc(C(C)(C)C)c(O)c(C(C)(C)C)c1)Sc1cc(C(C)(C)C)c(O)c(C(C)(C)C)c1 [probucol],inhibition of activation and collagen expression/production,cultured stellate cells,success in inhibiting activation and collagen production
CCCOC(=O)c1cc(O)c(O)c(O)c1 [propyl gallate],inhibition of activation and collagen expression/production,cultured stellate cells,success in inhibiting activation and collagen production
CCCCC[C@H](O)/C=C/[C@H]1[C@H](O)CC(=O)[C@@H]1C/C=C\CCCC(=O)O [prostaglandin E2],hepatocellular necrosis,[10],ameliorate hepatocellular necrosis
NC(=O)c1ncn([C@@H]2O[C@H](CO)[C@@H](O)[C@H]2O)n1 [ribovirin],effectiveness,chronic hepatitis B or C,neither has been shown to be very effective
"C#CCCCC(=O)c1cc(C(C)(C)C)c(O)c(C(C)(C)C)c1 [tebufelone, 4-(5′-hexynoyl)-2,6-di-tert-butylphenol]",cyclooxygenase inhibition,cyclooxygenase,reversibly inhibits
same,5-lipoxygenase inhibition,5-lipoxygenase [11],reversibly inhibits
interferon alpha,patients requiring discontinuance or dosing adjustment,[12],20-50%
